Results published in EP0597303A2, “Cephalosporin derivatives” (priority 1992, dated 1994).
Counter-ions that a name gives are not always drawn. Like-named read-outs stand apart in the source and are kept apart here.

Legend:
Experiment in all cases: MIC, Agar (Mueller Hinton) Dilution Method
Assay type in all cases: cell-based
[1] = tested on: Staphylococcus aureus Smith
From the text: (§1) The in vitro activity of the compounds of formula I of the present invention as measured by the Minimum Inhibitory Concentration (MIC) in micrograms/ml utilizing the Agar (Mueller Hinton) Dilution Method against a variety of Gram-positive and Gram-negative organisms, is set forth in Table 1.

[2] = tested on: Str. pneumoniae N82-012-MC; conditions: Streptococcus pneumoniae, N82012MC
From the text: as §1

[3] = tested on: Streptococcus pneumoniae 6303
From the text: as §1

E. coli 1527E = conditions: Escherichia coli, Gram Negative
From the text: as §1

E. coli B = conditions: Escherichia coli, Gram Negative
From the text: as §1

Staph. aureus 1059B = conditions: Staphylococcus aureus
From the text: as §1

E. coli 94 = conditions: Escherichia coli, Gram Negative
From the text: as §1

E. coli 1894 E = conditions: Escherichia coli
From the text: as §1

Prot. mirabilis 90 = conditions: Proteus mirabilis
From the text: as §1

Staph. aureus 82 = conditions: Staphylococcus aureus
From the text: as §1

Ps. aeruginosa 8780 = conditions: Pseudomonas aeruginosa, Gram Negative
From the text: as §1

Ps. cepacia 1973 B = conditions: Burkholderia cepacia, Gram Negative
From the text: as §1

Prov. rettgeri ATCC 9250 = conditions: Providencia rettgeri, ATCC9250, Gram Negative
From the text: as §1

Staph. pyogenes 4 = tested on: Staph. pyogenes 4
From the text: as §1

Staph. aureus 67 = conditions: Staphylococcus aureus
From the text: as §1

Klebsiella pneumoniae A = conditions: Gram Negative
From the text: as §1

Staph. aureus ATCC 25923 = conditions: Staphylococcus aureus, ATCC25923, Gram Positive and Others
From the text: as §1

Ser. marcescens MA = conditions: Serratia marcescens, Gram Negative
From the text: as §1

Staph. aureus 3037B = conditions: Staphylococcus aureus
From the text: as §1

Ps. aeruginosa 56-1B = conditions: Pseudomonas aeruginosa, 561B
From the text: as §1

Ps. aeruginosa K799/61 = conditions: Pseudomonas aeruginosa; Ps. aeruginosa K799/61; Gram Negative; read-out: MIC
From the text: as §1

E. coli DC-0 = conditions: Escherichia coli, DC0, Gram Negative
From the text: as §1

Str. pyogenes 503-782 = conditions: Streptococcus pyogenes, 503782
From the text: as §1

Prot. mirabilis 620A = conditions: Proteus mirabilis
From the text: as §1

A. calcoaceticus PCI-3 = conditions: Acinetobacter calcoaceticus, PCI3, Gram Negative
From the text: as §1

Ser. sp. 101 = tested on: Ser. sp. 101
From the text: as §1

E. coli Leo HA2M4 = conditions: Escherichia coli, LEOHA2M4
From the text: as §1

Ps. aeruginosa 56M = conditions: Pseudomonas aeruginosa, Gram Negative
From the text: as §1

[4] = tested on: Proteus vulgaris ATCC 6380; conditions: ATCC6380
From the text: as §1

Enter. cloacae 4192-2 = conditions: Enterobacter cloacae, 41922
From the text: as §1

Ent. hirae ATCC 8043 = conditions: Enterococcus hirae, ATCC8043, Gram Positive and Others
From the text: as §1

Prot. mirabilis 2 = conditions: Proteus mirabilis
From the text: as §1

Ps. aeruginosa K799/WT = conditions: Pseudomonas aeruginosa, Gram Negative
From the text: as §1

Staph. aureus ATCC 29213 = conditions: Staphylococcus aureus, ATCC29213
From the text: as §1

Ps. aeruginosa 1973 E = conditions: Pseudomonas aeruginosa, Gram Negative
From the text: as §1

Ent. faecalis ATCC 29212 = conditions: Enterococcus faecalis, ATCC29212, Gram Positive and Others
From the text: as §1

Prot. vulgaris 100 = conditions: Proteus vulgaris, Gram Negative
From the text: as §1

K. pneumoniae 369 = conditions: Klebsiella pneumoniae
From the text: as §1

[5] = Staphylococcus aureus Smith, Gram Positive and Others, read-out: MIC
[6] = E. coli 1894 E, Gram Negative, read-out: MIC
[7] = Staph. aureus 82, Gram Positive and Others, read-out: MIC
[8] = Staph. aureus 3037B, Gram Positive and Others, read-out: MIC
[9] = Ser. sp. 101, Gram Negative, read-out: MIC
[10] = E. coli Leo HA2M4, Gram Negative, read-out: MIC
[11] = Proteus vulgaris ATCC 6380, constitutive ß-lactamase producer, Gram Negative, read-out: MIC
[12] = Prot. mirabilis 2, Gram Negative, read-out: MIC
[13] = Staph. aureus ATCC 29213, Gram Positive and Others, read-out: MIC
[14] = Str. pneumoniae N82-012-MC, Gram Positive and Others, read-out: MIC
[15] = Prot. mirabilis 90, Gram Negative, read-out: MIC
[16] = Staph. pyogenes 4, Gram Positive and Others, read-out: MIC
[17] = Staph. aureus 67, methicillin-resistant, Gram Positive and Others, read-out: MIC
[18] = Ps. aeruginosa 56-1B, Gram Negative, read-out: MIC
[19] = Str. pyogenes 503-782, Gram Positive and Others, read-out: MIC
[20] = K. pneumoniae 369, Gram Negative, read-out: MIC

Row | Compound | MIC [1, 5] [µg/mL] | MIC (E. coli 1527E) [µg/mL] | MIC (E. coli B) [µg/mL] | MIC (Staph. aureus 1059B; 1059B) [µg/mL] | MIC (E. coli 94) [µg/mL] | MIC (E. coli 1894 E; [6]) [µg/mL] | MIC (Ps. cepacia 1973 B) [µg/mL] | MIC (Prov. rettgeri ATCC 9250) [µg/mL] | MIC (Klebsiella pneumoniae A) [µg/mL] | MIC (Staph. aureus ATCC 25923) [µg/mL] | MIC (Ser. marcescens MA) [µg/mL] | MIC (Ps. aeruginosa K799/61) [µg/mL] | MIC (E. coli DC-0) [µg/mL] | MIC (A. calcoaceticus PCI-3) [µg/mL] | MIC (Ps. aeruginosa 56M) [µg/mL] | MIC (Ent. hirae ATCC 8043) [µg/mL] | MIC (Ps. aeruginosa K799/WT) [µg/mL] | MIC (Ps. aeruginosa 1973 E) [µg/mL] | MIC (Ent. faecalis ATCC 29212) [µg/mL] | MIC (Prot. vulgaris 100) [µg/mL] | further results
1 | N#CCC(=O)N[C@@H]1C(=O)N2C(C(=O)O)=C(COC(=O)N[C@H]3CCN(c4c(F)cc5c(=O)c(C(=O)O)cn(C6CC6)c5c4F)C3)CS[C@H]12 [Formula Iba, [6R-[3(S^*), 6 alpha, 7 beta]]-3-[[[[[1-(3-Carboxy-1-cyclopropyl-6,8-difluoro-1,4-dihydro-4-oxo-7-quinolinyl-3-pyrrolidinyl]-amino]carbonyl]oxy]methyl]-7-[(cyanoacetyl)amino]-8-oxo-5-thia 1-azabicyclo[4.2.0]oct-2-ene-2-carboxylic acid monosodium salt] | 0.0625 | ≤ 0.0156 | ≤ 0.0156 | 0.0313 | 0.0313 | ≤ 0.0156 | 4 | 0.0625 | 0.0625 | 0.0625 | 4 | 0.0625 | 0.5 | 0.0625 | 0.0625 | 0.5 | 0.5 | 0.25 | 0.5 | 0.0625 | MIC [2]: 0.125 µg/mL; MIC ([3]; Streptococcus pneumoniae, 6303): 0.0313 µg/mL; MIC (Prot. mirabilis 90; 90): 0.125 µg/mL; MIC (Staph. aureus 82; [7]): 0.0625 µg/mL; MIC (Ps. aeruginosa 8780): 0.5 µg/mL; MIC (Staph. pyogenes 4; 4): 0.0313 µg/mL; MIC (Staph. aureus 67; 67): 0.125 µg/mL; MIC (Staph. aureus 3037B; [8]): 0.0625 µg/mL; MIC (Ps. aeruginosa 56-1B): 0.125 µg/mL; MIC (Str. pyogenes 503-782): 0.0313 µg/mL; MIC (Prot. mirabilis 620A; Prot. mirabilis 620A, Gram Negative, read-out: MIC): 0.0625 µg/mL; MIC (Ser. sp. 101; [9]): 0.0625 µg/mL; MIC (E. coli Leo HA2M4; [10]): ≤ 0.0156 µg/mL; MIC [4, 11]: 0.0625 µg/mL; MIC (Enter. cloacae 4192-2; Enter. cloacae 4192-2, Gram Negative, read-out: MIC): ≤ 0.0156 µg/mL; MIC (Prot. mirabilis 2; [12]): 0.0625 µg/mL; MIC (Staph. aureus ATCC 29213; [13]): 0.0625 µg/mL; MIC (K. pneumoniae 369; 369): 0.125 µg/mL
2 | N#CCC(=O)N[C@@H]1C(=O)N2C(C(=O)O)=C(COC(=O)N[C@@H]3CCN(c4c(F)cc5c(=O)c(C(=O)O)cn(C6CC6)c5c4F)C3)CS[C@H]12 [Formula Ibb, [6R-[3(R^*), 6 alpha, 7 beta]]-3-[[[[[1-(3-Carboxy-1-cyclopropyl-6,8-difluoro-1,4-dihydro-4-oxo-7-quinolinyl-3-pyrrolidinyi]amino]carbonyl]oxy]methyL]-7-[(cyanoacetyl)amino]-8-oxo-5-thia-1-azabicyclo[4.2.0]oct-2-ene-2-carboxylic acid monosodium salt] | – | 0.0625 | 0.0313 | 0.125 | 0.125 | 0.0625 | 4 | 0.25 | 0.25 | 0.25 | 8 | 0.25 | 2 | 0.5 | 0.25 | 1 | 1 | 1 | 2 | 0.0625 | MIC ([1]; Staphylococcus aureus): 0.125 µg/mL; MIC [2, 14]: 0.25 µg/mL; MIC ([3]; Streptococcus pneumoniae 6303, Gram Positive and Others, read-out: MIC): 0.0625 µg/mL; MIC (Prot. mirabilis 90; [15]): 0.5 µg/mL; MIC (Staph. aureus 82; 82): 0.125 µg/mL; MIC (Ps. aeruginosa 8780): 2 µg/mL; MIC (Staph. pyogenes 4; [16]): 0.0625 µg/mL; MIC (Staph. aureus 67; [17]): 0.5 µg/mL; MIC (Staph. aureus 3037B; 3037B): 0.125 µg/mL; MIC (Ps. aeruginosa 56-1B; [18]): 0.5 µg/mL; MIC (Str. pyogenes 503-782; [19]): 0.0625 µg/mL; MIC (Prot. mirabilis 620A; 620A): 0.125 µg/mL; MIC (Ser. sp. 101): 0.125 µg/mL; MIC (E. coli Leo HA2M4): 0.0313 µg/mL; MIC ([4]; Proteus vulgaris): 0.125 µg/mL; MIC (Enter. cloacae 4192-2): 0.0313 µg/mL; MIC (Prot. mirabilis 2; 2): 0.125 µg/mL; MIC (Staph. aureus ATCC 29213): 0.125 µg/mL; MIC (K. pneumoniae 369; [20]): 0.5 µg/mL
3 | O=C(Cc1cccs1)N[C@@H]1C(=O)N2C(C(=O)O)=C(COC(=O)N3CCN(c4c(F)cc5c(=O)c(C(=O)O)cn(C6CC6)c5c4F)CC3)CS[C@H]12 [Formula Ia, [6R,7R]-3-[[[[4-(3-Carboxy-1-cyclopropyl-6,8-difluoro-1,4-dihydro-4-oxo-7-quinolinyl)-1-piperazinyl]carbonyl]-oxy]-methyl]-8-oxo-7-[(2-thienylacetyl)amino]-5-thia-1-azabicyclo-[4.2.0]oct-2-ene-2-carboxylic acid] | 0.25 | ≤ 0.0156 | 0.0313 | – | 0.0625 | – | 4 | 0.25 | 0.25 | 0.25 | 16 | 2 | 2 | 0.25 | 0.25 | 2 | 2 | 1 | 4 | 0.125 | MIC [2, 14]: 0.0313 µg/mL; MIC (Staph. aureus 1059B; Staph. aureus 1059B, Gram Positive and Others, read-out: MIC): 0.25 µg/mL; MIC (E. coli 1894 E; 1894E): 0.0625 µg/mL; MIC (Prot. mirabilis 90; [15]): 0.5 µg/mL; MIC (Staph. aureus 82; [7]): 0.125 µg/mL; MIC (Staph. pyogenes 4; [16]): ≤ 0.0156 µg/mL; MIC (Staph. aureus 67; [17]): 1 µg/mL; MIC (Staph. aureus 3037B; [8]): 1 µg/mL; MIC (Ps. aeruginosa 56-1B; [18]): 0.25 µg/mL; MIC (Str. pyogenes 503-782; [19]): ≤ 0.0156 µg/mL; MIC (Prot. mirabilis 620A; 620A): 0.0625 µg/mL; MIC (Ser. sp. 101; [9]): 0.5 µg/mL; MIC (E. coli Leo HA2M4; [10]): ≤ 0.0156 µg/mL; MIC [4, 11]: 0.125 µg/mL; MIC (Enter. cloacae 4192-2): 0.0625 µg/mL; MIC (Prot. mirabilis 2; [12]): 0.25 µg/mL; MIC (Staph. aureus ATCC 29213; [13]): 0.5 µg/mL; MIC (K. pneumoniae 369; [20]): 0.5 µg/mL
